Structures can show the parent of a compound that is named as a salt. Where two headings read alike, the source gives them in different places.
Key:
PPARg = test: PPARgamma Transient Cotransfection Assay; type: cell-based
hPPARgamma = molecular target: T1, hPPARgamma (Homo sapiens, UniProt P37231); test: hPPARgamma Ligand Binding Assay
T1 construct: 10x-histidine tag (N); made in house; host or cells: E. coli
T1 sequence (P37231 195-475 isoform P37231-2): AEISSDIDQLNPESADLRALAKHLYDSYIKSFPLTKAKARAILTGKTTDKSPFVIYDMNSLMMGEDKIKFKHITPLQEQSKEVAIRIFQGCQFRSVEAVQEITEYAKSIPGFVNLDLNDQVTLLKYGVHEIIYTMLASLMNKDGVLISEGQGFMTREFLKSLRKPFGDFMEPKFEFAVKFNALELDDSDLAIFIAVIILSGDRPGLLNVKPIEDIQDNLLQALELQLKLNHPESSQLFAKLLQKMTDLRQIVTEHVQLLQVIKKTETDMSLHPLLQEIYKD
Protocol: 2. hPPARgamma Ligand Binding Assay: The PPAR-gamma ligand binding domain (amino acids 195-475) was expressed with an N-terminal 10×-histidinetag in E. coli cells. The cells were lysed and receptor was purified by means of the epitope tag. The stock solution of protein was diluted to 200 nM in assay buffer (50 mM Tris, 50 mM KCl, pH 8 20 mM CHAPS, 2 mM EDTA 10 mM DTT (Fresh)) just before use.
Test compounds were prepared as 6 mM stock solutions in DMSO. […] The right-most column of wells was used for controls. […] Plates were incubated at room temperature for 2 hrs, and then cooled on ice for 30 minutes. 50 uL samples from each well of a single test plate were simultaneously loaded onto an equilibrated AGTC 96 well gel filtration block (Advanced Genetics Technology Corp.) using a Zymak Rapidplate automated pipettor. The block was placed on top of a clean microtiter plate and centrifuged @1,100×g for 4 min. 200 uL of scintillation fluid was added to each well, the plates were sealed and allowed to equilibrate for at least 4 hours before counting in a Wallac 1250 Microbeta counter.
Ki's were determined from a nonlinear least squares fit of the data to a simple competitive binding model.

[1] = CAT reporter, read-out: PPARg EC50
[2] = PPARg Ki, competition with [3H]-BRL 49,653, room temperature 2 hrs
[3] = read-out: PPARg EC50, CAT reporter

| Compound | EC50 (PPARg; [1]) [nM] | Ki (hPPARgamma; [2]) [nM] | other results |
| --- | --- | --- | --- |
| COC(=O)[C@H](Cc1ccc(OCc2ccccc2)cc1)NC(=O)c1coc2ccccc2c1=O [Example 10, 3-(4-Benzyloxy-phenyl)-2(S)-[(4-oxo-4H-chromene-3-carbonyl)-amino]-propionic acid methyl ester] | 170 | 300 | – |
| 2-(2-Benzoyl-phenylamino)-3-(4-{2-[3-(5-methyl-pyridin-2-yl)-propoxy]-ethoxyl}-phenyl)-propionic acid [Example 122] | 500 | – | Ki (hPPARgamma; competition with [3H]-BRL 49,653, room temperature 2 hrs; read-out: PPARg Ki): 625 nM |
| Cc1oc(-c2ccccc2)nc1CCOc1ccc(C[C@H](Nc2ccccc2C(=O)c2ccc[n+]([O-])c2)C(=O)O)cc1 [Example 59, 3-{4-[2-(5-methyl-2-phenyl-oxazol-4-yl)-ethoxy]-phenyl}-2(S)-[2-(pyridine-N-oxide-3-carbonyl)-phenylamino]-propionic acid] | 95 | 100 | – |
| CN(CCOc1ccc(CC(Nc2cc(F)ccc2C(=O)C2CCCCC2)C(=O)O)cc1)c1nc2ccccc2o1 (stereo not shown) [Example 50, 3-{4-[2-(Benzoxazol-2-yl-methyl-amino)-ethoxy]-phenyl}-2-(2-cyclohexanecarbonyl-5-fluoro-phenylamino)-propionic acid] | 50 | 390 | – |
| CCN(CCOc1ccc(C[C@H](Nc2ccccc2C(=O)OC)C(=O)O)cc1)c1cccc(C)c1 [Example 71] | 150 | – | – |
| Cc1oc(-c2ccccc2)nc1CCOc1ccc(CC(Nc2ccccc2C(=O)c2cccc(OCC(N)=O)c2)C(=O)O)cc1 (stereo not shown) [Example 98, 2-[2-(3-Carbanoylmethoxy-benzoyl)-phenylamino]-3-{4-[2-(5-methyl-2-phenyl-oxazol-4-yl)-ethoxy]-phenyl}-propionic acid] | 375 | 10 | – |
| COC(=O)c1ccccc1N[C@@H](Cc1ccc(OC[C@@H]2CCCN2c2ccc([N+](=O)[O-])cc2)cc1)C(=O)O [Example 47, 2-(1-Carboxy-2-{4-[1-(4-nitro)-phenyl-pyrrolidin-2-ylmethoxy]-phenyl}-ethylamino)-benzoic acid methyl ester] | 50 | 240 | – |
| CN(CCOc1ccc(CC(Nc2ccccc2C(=O)c2ccc(-c3ccccc3)cc2)C(=O)O)cc1)c1nc2ccccc2o1 (stereo not shown) [Example 109, 3-{4-[2-(Benzoxazol-2-yl-methylamino)-ethoxy]-phenyl}-2-(2-(4-biphenylcarbonyl)-phenylamino)-propionic acid] | 200 | 700 | – |
| Cc1ccccc1C(=O)c1ccccc1NC(Cc1ccc(OCCN(C)c2nc3ccccc3o2)cc1)C(=O)O (stereo not shown) [Example 112, 3-{4-[2-(Benzoxazol-2-yl-methylamino)-ethoxy]-phenyl}-2-(2-(2-methyl-benzoyl)-phenylamino)-propionic acid] | 10 | 130 | – |
| COC(=O)c1ccccc1N[C@@H](Cc1ccc(OCCSc2ccc(Cl)cn2)cc1)C(=O)O [Example 70] | 200 | – | Ki (hPPARgamma; read-out: PPARg Ki; competition with [3H]-BRL 49,653, room temperature 2 hrs): 250 nM |
| Cc1ccc(C(=O)c2ccccc2NC(Cc2ccc(OCCN(C)c3nc4ccccc4o3)cc2)C(=O)O)cc1 (stereo not shown) [Example 111, 3-{4-[2-(Benzoxazol-2-yl-methylamino)-ethoxy]-phenyl}-2-(2-(4-methyl-benzoyl)-phenylamino)-propionic acid] | 10 | 70 | – |
| O=C(C1=C(N[C@@H](Cc2ccc(OCc3ccccc3)cc2)C(=O)O)CCCC1)c1ccccc1 [Example 3, 2(S)-(2-Benzoyl-cyclohex-1-enylamino)-3-(4-benzyloxy-phenyl)-propionic acid dicyclohexylamine salt] | – | – | PPARg Fold. Act. (PPARg; CAT reporter): 3 |
| CN(CCOc1ccc(CC(Nc2ccccc2C(=O)C2CCCCCC2)C(=O)O)cc1)c1nc2ccccc2o1 (stereo not shown) [Example 49, 3-{4-[2-(Benzoxazol-2-yl-methyl-amino)-ethoxy]-phenyl}-2-(2-cycloheptanecarbonyl-phenylamino)-propionic acid] | 10 | 80 | – |
| CN(CCOc1ccc(CC(Nc2ccccc2C(=O)c2ccccc2C(F)(F)F)C(=O)O)cc1)c1nc2ccccc2o1 (stereo not shown) [Example 77] | 65 | 155 | – |
| Cc1oc(-c2ccccc2)nc1CCOc1ccc(CC(Nc2ccccc2C(=O)c2ccc(CN)cc2)C(=O)O)cc1 (stereo not shown) [Example 82, 2-[2-(4-aminomethyl-benzoyl)-phenylamino]-3-{4-[2-(6-methyl-2-phenyl-oxazol-4-yl)-ethoxy]-phenyl}-propionic acid hydrochloride] | 25 | 65 | – |
| COC(=O)c1ccccc1N[C@@H](Cc1ccc(OCCc2ccc(Cl)cc2)cc1)C(=O)O [Example 106, 2(S)-(1-carboxy-2-{4-[2-(4-chloro-phenyl)-ethoxy]-phenyl}-ethylamino)-benzoic acid methyl ester] | 300 | 140 | – |

| Compound | EC50 (PPARg; [1]) [nM] | Ki (hPPARgamma; [2]) [nM] | other results |
| --- | --- | --- | --- |
| CC(=CC(=O)c1ccccc1)NC(Cc1ccc(OCCN(C)c2ccccn2)cc1)C(=O)O (stereo not shown) [Example 14, 2-(1-Methyl-oxo-3-phenyl-propenylamino)-3{4-[2-(methyl-pyridin-2-yl-amino)-ethoxy]-phenyl}-propionic acid dicyclohexylamine salt] | 1 | 80 | PPARg Fold. Act. (PPARg; CAT reporter): 18 |
| O=C(c1ccccc1)c1ccccc1N[C@@H](Cc1ccc(OCCSc2ccc(Cl)cc2)cc1)C(=O)O [Example 115, 2-(2-Benzoyl-phenylamino)-3-{4-2[-(4-chloro-phenylsulfanyl)ethoxy]-phenyl}-propionic acid] | 165 | 200 | – |
| Cc1sc(N2CCN(S(C)(=O)=O)CC2)nc1CCOc1ccc(C[C@H](Nc2ccccc2C(=O)c2ccccc2)C(=O)O)cc1 [Example 103, 2(S)-(2-benzoyl-phenylamino)-3-(4-{2-[5-methyl-2-(4-methylsulfonyl-piperazin-1-yl)-thiazol-4-yl]-ethoxy}-phenyl)-propionic acid] | – | – | EC50 (PPARg; [3]): 180 nM |
| Cc1oc(-c2ccccc2)nc1CCOc1ccc(CC(Nc2ccccc2C(=O)c2cccc(CN)c2)C(=O)O)cc1 (stereo not shown) [Example 86, 2-[2-(3-aminomethyl-benzoyl)-phenylamino]-3-{4-[2-(5-methyl-2-phenyl-oxazol-4-yl)-ethoxy]-phenyl}-propionic acid hydrochloride] | 30 | 650 | – |
| CCCNS(=O)(=O)c1ccc(C(=O)c2ccccc2NC(Cc2ccc(OCCc3nc(-c4ccccc4)oc3C)cc2)C(=O)O)cc1 (stereo not shown) [Example 93, 3-{4-[2-(5-methyl-2-phenyl-oxazol-4-yl)-ethoxy]-phenyl}-2-[2-(4-propylsulfamoyl-benzoyl)-phenylamino]-propionic acid] | 55 | 100 | – |
| CC(=CC(=O)c1ccccc1)N[C@@H](Cc1ccc(OCCN(C)c2nc3ccccc3o2)cc1)C(=O)O [Example 17, 3-{4-[2-(Benzoxazol-2yl-methyl-amino)-ethoxy]-phenyl}-2(S)-(1-methyl-3-oxo-3-phenyl-propenylamino)-propionic acid dicyclohexylamine salt] | 1 | 80 | – |
| COC(=O)[C@H](Cc1ccc(OCCc2nc(N3CCN(C)CC3)sc2C)cc1)Nc1ccccc1C(=O)c1ccccc1 [Example 42] | 5 | – | – |
| COC(=O)c1ccccc1N[C@@H](Cc1ccc(OCCc2nc(-c3ccccc3)oc2C)cc1)C(=O)O [Example 88, 2-(S)-(1-carboxy-2-{4-{2-(5-methyl-2-phenyl-oxazol-4-yl)-ethoxy]-phenyl}-ethylamino)-benzoic acid methyl ester] | – | – | EC50 (PPARg; [3]): 0.5 nM |
| CN(CCOc1ccc(CC(Nc2ccccc2C(=O)c2ccccc2)C(=O)O)cc1)c1ccccn1 (stereo not shown) [Example 11, 2-(2-Benzoyl-phenylamino)-3-{4-[2-(methyl-pyridin-2-yl-amino)-ethoxy]-phenyl}-propionic acid] | – | – | EC50 (PPARg; [3]): 10 nM |
| Cc1oc(-c2ccccc2)nc1CCOc1ccc(CC(Nc2ccccc2C(=O)c2cccc(C(=O)O)c2)C(=O)O)cc1 (stereo not shown) [Example 84] | 55 | – | – |
| COC(=O)C(Cc1ccc(OCc2ccccc2)cc1)Nc1ccccc1C(=O)Nc1ccccc1 (racemic) [Example 6, 3-(4-Benzyloxy-phenyl)-2-(phenylcarbamoyl-phenylamino)-propionic acid methyl ester] | – | – | PPARg Fold. Act. (PPARg; CAT reporter): 4 |
| CNC(=O)c1ccccc1N[C@@H](Cc1ccc(OCCc2nc(-c3ccccc3)oc2C)cc1)C(=O)O [Example 91, 2-(S)-(1-carboxy-2-{4-{2-(5-methyl-2-phenyl-oxazol-4-yl)ethoxy]-phenyl}-ethylamino)-benzoic acid methyl amide] | 20 | – | – |
| COC(=O)C(Cc1ccc(OCc2ccccc2)cc1)Nc1ccccc1C(=O)N1CCCCC1 (stereo not shown) [Example 7, 3-(4-Benzyloxy-phenyl)-2-[2-(piperidine-1-carbonyl)-phenylamino]-propionic acid methyl ester] | – | – | PPARg Fold. Act. (PPARg; CAT reporter): 5 |
| Cc1oc(-c2ccccc2)nc1CCOc1ccc(CC(Nc2ccccc2C(=O)c2cccc(CO)c2)C(=O)O)cc1 (stereo not shown) [Example 85, 2-[2-(3-hydroxymethyl-benzoyl)-phenylamino]-3-{4-[2-(5-methyl-2-phenyl-oxazol-4-yl)-ethoxy]-phenyl}-propionic acid] | 20 | – | – |
| CN(CCOc1ccc(C[C@H](NC(=O)c2coc3ccccc3c2=O)C(=O)O)cc1)c1nc2ccccc2o1 [Example 28, 3-{4-[2-(Benzoxazol-2-yl-methyl-amino)-ethoxy]-phenyl}-2(S)-[(4-oxo-4H-chromene-3-carbonyl)-amino]-propionic acid] | 25 | – | – |
| Cc1oc(-c2ccccc2)nc1CCOc1ccc(C[C@H](Nc2ccccc2C(=O)NCCCN)C(=O)O)cc1 [Example 90, 2-(S)-(1-carboxy-2-{4-{2-(5-methyl-2-phenyl-oxazol-4-yl)-ethoxy]-phenyl}-ethylamino)-benzoic acid 3-aminopropyl amide hydrochloride] | – | 3000 | – |
